Patent USRE42072E1, “Compositions and methods for enhancing receptor-mediated cellular internalization” (The Penn State Research Foundation, priority 1996, dated 2011)

What was measured:
[1] = Bioavailability of peptides after vaginal administration to sheep, relative to intravenous injection; conditions: in vivo
Description: (§1) First, a peptide that undergoes receptor-mediated transport across the vaginal epithelium was identified by studying the permeation of peptides of varying molecular weight in a sheep model. Peptides were delivered vaginally to sheep in 5 ml of aqueous or methocel solutions with typical peptide concentrations of 10-40 μg/ml. A group of 18 intact ewes were utilized for these experiments. For each study, sheep were randomly assigned to a treatment group. In GnRH studies where each animal received all possible treatment combinations, each animal was assigned to an initial treatment group at random and subsequently randomly to each of the remaining treatment groups. A minimum of 5 days (typically 10 or more days) was allowed between experiments on a given animal, to provide sufficient time for complete recovery of pituitary responsiveness to the highest doses of the GnRH agonist used A 16G 150 mm jugular catheter (Abbocath-T, Abbott Laboratories, Chicago, Ill.) was inserted and blood samples collected at 0, 30, 60, 90, 120, 180, 240, 360, 480 and 1440 min. after treatment. Luteinizing hormone (LH) levels were determined.
(§2) LHRH analog was placed in methyl cellulose solutions (“methocels”) of varying apparent viscosity. […] First, 200 μg of leuprolide acetate in 5 ml of aqueous solutions with melhocel weight concentrations varying between 0% and 3.0% were vaginally administered.
The enhanced bioavailability of LHRH also coincides with a longer-term release into the systemic circulation at the optimal methocel concentrations. […] To test this hypothesis, the efficacy of a second, physically cross-linked hydrogel that was believed would not enhance endocytosis, but whose apparent viscosity (in the range of hydrogel concentrations 0.0-5.5%) was similar to that of the methocels (in the range 0.0-3.0%) was examined.

luteinizing hormone (LH) [2] = experiment: Serum LH response to iv injection and vaginal administration of LHRH analog in intact ewes; format: in vivo, sheep
Description: FIGS. 1a and 1b are graphs showing serum responses to iv injection and vacinal administration of vasopressin and leuprolide acetate. […] Vasopressin was injected intravenously ([…]) through a jugular catheter. The peptide was delivered vaginally in 5 ml of aqueous solution (200 g does). Standard errors are based on n=6. […] LHRH analog was injected intravenously ([…]) into through a jugular catheter. The peptide was delivered vaginally in 5 ml of aqueous solution (200 g dose). Standard errors are based on n=6.
FIG. 2 is a graph showing bioavailability of LHRH analog following vaginal administration as a function of methyl cellulose (“methocel”) concentration. Bioavailability is determined relative to intravenous injection (FIG. 1b) and is based on LH response. The administered dose of LHRH analog was 200 g in 5 ml of methocel solution. Results are based on animals that responded to vaginal treatment, with standard error computed on the basis of n≧4 In all cases, less than 50% of treated animals responded with LH levels greater than 3 ng/ml for more than one sampling point, with sampling times of 0, 30, 60, 90, 120, 180, 240, 360, and 480 min.
as §1, §2

in vivo = format: in vivo, sheep; conditions: female, sheep, in vivo, 40 ug, bioavailability
Description: (§3) FIG. 3 is a graph showing the percent of responding animals to LHRH analog vaginal delivery as a function of (simulated) stage of the estrous cycle. Stage of estrous cycle was simulated by delivering estradiol for two weeks to ovariectomized ewes (anestrus phase), followed by two weeks of delivery of estradiol and progesterone (mid-luteal phase), followed by a period of 48 h after progesterone withdrawal (follicular phase). In each simulated phase, 10, 40, or […] of LHRH analog were delivered vaginally in 5 ml of aqueous or methocel solution to groups of six ewes. Responding animals were defined as those treated animals with LH serum values exceeding 3 ng/ml for two or more sampling points, with sampling times of 0, 30, 60, […], 120, 180, 240, 360, and 480 min.
(§4) FIG. 4 is a graph showing serum LH response to vaginal administration of LHRH analog. LHRH analog-was administered vaginally in ovariectomized ewes during the simulated mid-luteal phase in 5 ml of aqueous or methocel (1.75% methyl cellulose) solution (40 μg dose). Standard errors are based on n=6.
(§5) It was therefore hypothesized that the responsiveness of animals to LHRH analog vaginal delivery varied with steroid-dependent hormone receptor expression (estrous cycle). To test this hypothesis, a group of ewes was ovariectomized and administered estradiol and progesterone to mimic the animals' estrous cycle. Ewes were pre-medicated with atropine (0.02 mg/lb) and Telazol (R) (2 mg/lb) intramuscularly. After induction of recumbency, thipental (5% in water) was administered intravenously to induce sufficient anesthesia to permit endotracheal intubation. Anesthesia was maintained using halothane in oxygen at 1-2 liters per minute. Ovaries were removed through a mid-line incision.
(§6) Within 24 h of surgery, a 1.5 cm silicone implant of estradiol (Compudose 200, Elanco, Ind.) was inserted into the left ear to provide a basal level of estradiol. The anestrus state was simulated after two weeks of estradiol delivery following surgery. Experiments were performed in the simulated anestrus state (i.e. two weeks after surgery) as described above. Immediately following the last blood sample, a progesterone-releasing intravaginal device (CIDR-G, Carter Hold Harvey Plastic Products, Hamilton, New Zealand) was inserted.
(§7) In a parallel study, an alternative progesterone-releasing device (Snychro-Mate-B, Sanofi Animal Health, Overland Park, Kans.) was placed in the left ear. The mid-luteal phase was simulated after permitting a 10 day intravaginal or ear progesterone treatment. Experiments were performed in the simulated mid-luteal phase as described above.
(§8) The progesterone-releasing (vaginal or ear) implant was removed and the follicular phase was simulated by allowing a time lapse of 48 h. Experiments were performed in the follicular phase as described above.
(§9) Next, 200 μg of leuprolide acetate in 5 ml of aqueous solutions was vaginally administered during simulated anestrus (estradiol only), mid-luteal (estradiol and progesterone), and follicular (48 h after progesterone withdrawal) phases, as described above. […] In contrast, 100% of animals responded when treated with progesterone and estradiol (FIG. 3).

luteinizing hormone (LH) [3] = experiment: in vivo; format: in vivo, sheep; conditions: for animals responded: vaginal 200 μg; for LH response: vaginal, progesterone and estradiol treatment
Description: as §3, §4, §5, §6, §7, §8, §9

- bioavailability ([1]; female, sheep): 2.6 ± 0.9%
- bioavailability (in vivo): 6%
- bioavailability (luteinizing hormone (LH) [3]; female, sheep, in vivo, 40 ug): 10%
Compound: CCNC(=O)[C@@H]1CCCN1C(=O)[C@H](CCCNC(=N)N)NC(=O)[C@H](CC(C)C)NC(=O)[C@@H](CC(C)C)NC(=O)[C@H](Cc1ccc(O)cc1)NC(=O)[C@H](CO)NC(=O)[C@H](Cc1c[nH]c2ccccc12)NC(=O)[C@H](Cc1c[nH]cn1)NC(=O)[C@@H]1CCC(=O)N1 [leuprolide acetate]
- duration of delivery as a function of control gel concentration [1]: diminished with increasing control gel concentration
- bioavailability as a function of control hydrogel concentration ([1]; sheep): diminished with increasing concentration of the hydrogel
- bioavailability as a function of methocel concentration ([1]; sheep, 200 ug): increase as methocel concentration increased to 1.75%, then to fall at higher methocel concentration
- luteinizing hormone (LH) response (luteinizing hormone (LH) [2]; intravenous injection (FIG. 1b)): significant
- luteinizing hormone (LH) response (luteinizing hormone (LH) [2]; vaginal administration, aqueous solution (FIG. 1b)): significant
- animals showing little or no response (luteinizing hormone (LH) [2]; vaginal administration, intact ewes, bimodal distribution): approximately 30%
- treated animals that responded with LH levels greater than 3 ng/ml for more than one sampling point (luteinizing hormone (LH) [2]; vaginal, 5 ml methocel solution, intact ewes, all methocel concentrations (FIG. 2)): less than 50%
- animals responded (luteinizing hormone (LH) [3]; treated with progesterone and estradiol (FIG. 3)): 100%
- animals responded (luteinizing hormone (LH) [3]; with or without 1.75% methocel, estrogen replacement without progesterone): less than 50%
- LH response (luteinizing hormone (LH) [3]; highest dose, with and without methocel): saturated
- LH response (luteinizing hormone (LH) [3]; lowest dose (10 μg)): undetectable
